Experimental data reported in patent EP0511003B1, “Superactive GRF analogs” (ELI LILLY AND COMPANY, priority 1991, dated 1992).
pEC50: −log10 of the molar value. Marks after values point to notes of the source that are not given here. One block for each substance: values may come before it.

What was measured:
[1] = molecular target: T1, rat primary pituitary cells (Rattus norvegicus, UniProt Q02644); assay: Growth hormone release in vitro from rat primary pituitary cells; format: cell-based; conditions: growth hormone released into media after exposure to 7 doses of secretagogue for 3h
T1 sequence (Q02644 23-464): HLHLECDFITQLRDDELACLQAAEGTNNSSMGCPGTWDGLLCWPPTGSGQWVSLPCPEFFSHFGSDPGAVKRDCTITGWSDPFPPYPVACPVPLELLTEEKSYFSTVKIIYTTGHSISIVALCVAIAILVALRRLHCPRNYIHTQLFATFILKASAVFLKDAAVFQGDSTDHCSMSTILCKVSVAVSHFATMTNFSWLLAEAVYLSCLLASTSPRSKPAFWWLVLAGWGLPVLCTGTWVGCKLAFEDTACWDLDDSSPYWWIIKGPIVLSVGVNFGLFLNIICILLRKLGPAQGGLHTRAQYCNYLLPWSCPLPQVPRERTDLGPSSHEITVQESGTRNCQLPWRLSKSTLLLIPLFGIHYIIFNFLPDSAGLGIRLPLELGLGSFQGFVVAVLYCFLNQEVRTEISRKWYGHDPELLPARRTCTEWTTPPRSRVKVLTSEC
Experimental: The polypeptide compounds of the invention may be assayed in numerous systems. One in vivo assay is carried out in sodium pentobarbital-anesthetized rats. Wehrenberg et al., Biochem. Biophys. Res. Commun. 109:382 (1982). Growth hormone release is measured in vitro with rat anterior pituitary cells. Heiman et al., Endocrinol. 116:410 (1985).

barrows = assay: In vivo effects in barrows injected subcutaneously or intravenously 3 times daily (urinary urea nitrogen excretion and serum parameters); conditions: for GH: serum Growth Hormone level; for GH / TRIG. / BUN / FFA / GLUCOSE / INSULIN: 12th day of treatment; for GH / TRIG. / BUN / FFA / GLUCOSE / INSULIN / UREA: means; for TRIG.: serum triglycerides; for BUN / FFA / GLUCOSE / INSULIN: serum; for UREA: urinary urea nitrogen excretion, injected 3 times daily
Experimental: A carrier solution was prepared by dissolving 1.38 g of Na2HP04 and 1.0g PSA with pyrogen free H2O to a final volume of 1 litre, pH approximately 5.1. 27.4 mg The p-methyl hippuroyl pGRF (2-76)OH prepared in substantial accordance with the teaching of Example 4.B. above was added to 64 ml of the carrier solution to achieve a final concentration of […].
Twenty crossbred barrows, averaging approximately 72 kg, with an indwelling catheter which had been surgically inserted into the femoral vein, were used to determine the effects of p-methyl hippuroyl pGRF (2-76)OH. A formulation of the p-methyl hippuroyl pGRF (2-76)OH was prepared in substantial accordance with the teaching of Example 11 above and injected 3 times daily at a rate of 10.0 µg/kg/inj., either intravenously (I.V.) or subcutaneously (S.Q.). The barrows were fed 2000 g of an 18.5% crude protein corn-soy diet per day, equally divided between 2 feedings at 8:00 a.m. and 4:00 p.m. The barrows were injected at 8:00 a.m., 4:00 p.m., and 12:00 p.m. Urinary urea nitrogen excretion data were collected during 1 5day control period, 4 3-day treatment periods, and 2 3-day periods after treatments were stopped. Thirty blood serum samples were collected during a 24-hour period on the 12th day of treatment. The serum samples were assayed for GH, BUN, glucose, insulin, FFA, and triglycerides.

[2] = Table 1, bGRF analogs, EC50 is the calculated median effective dose
[3] = injected 3 times daily at a rate of 30.0 µg/kg/d, versus control barrows

pEC50 [1, 2]: 9.23
Substance: bGRF (1-77)0H [reference compound]

pEC50 [1, 2]: 9.72
Substance: p-Chloro Hippuroyl bGRF(2-77)OH

pEC50 [1, 2]: 9.85
Substance: p-Fluoro Hippuroyl bGRF(2-77)0H

pEC50 [1, 2]: 9.48
Substance: p-Hydroxy Hippuroyl bGRF(2-77)0H

The remaining lines, values behind:

Substance: Hippuroyl-1 bGRF(2-77)0H
pEC50 [1, 2]: 9.07

Substance: Hippuroyl-1 pGRF(2-76)OH
pEC50 ([1]; Table 2, pGRF(2-76)OH analogs): 9.55

Substance: des Tyr-1 pGRF(2-76)0H [reference compound]
pEC50 ([1]; Table 2, pGRF(2-76)OH analogs): 7.02

Substance: n-Phenylmalonamindoyl bGRF(2-77)0H
pEC50 [1, 2]: 9.72

Substance: p-Methyl Hippuroyl bGRF(2-77)OH
pEC50 [1, 2]: 10.30

Substance: p-Methyl Hippuroyl pGRF(2-76)OH
pEC50 ([1]; Table 2, pGRF(2-76)OH analogs): 10.22
pEC50 ([1]; Table 3, p-Methyl Hippuroyl-1 pGRF analogs of different length): 10.22
increase in serum GH levels (barrows; [3]): 4 fold
reduction in serum BUN levels (barrows; [3]): 54%
reduction in urinary urea nitrogen excretion (barrows; [3]): 41%
GH (barrows; IV 30 µg/kg/d): 9.9^b ng/ml
GH (barrows; SQ 30 µg/kg/d): 8.9^b ng/ml
TRIG. (barrows; IV 30 µg/kg/d): 35.3^b mg/dla
TRIG. (barrows; SQ 30 µg/kg/d): 32.5^ab mg/dla
BUN (barrows; IV 30 µg/kg/d): 7.0^b mg/dl
FFA (barrows; IV 30 µg/kg/d): 97.3^b µM/la
GLUCOSE (barrows; IV 30 µg/kg/d): 132.7^b mg/dl
INSULIN (barrows; IV 30 µg/kg/d): 76.8^b µu/ml
BUN (barrows; SQ 30 µg/kg/d): 7.5^b mg/dl
FFA (barrows; SQ 30 µg/kg/d): 97.5^b µM/la
GLUCOSE (barrows; SQ 30 µg/kg/d): 147.3^b mg/dl
INSULIN (barrows; SQ 30 µg/kg/d): 112.9^C µu/ml
depression in urinary urea nitrogen excretion prolonged after treatments were stopped (barrows; subcutaneously injected barrows): 2 to 3 days
UREA (barrows; IV 30 µg/kg/d): 16.3^b g/day
UREA (barrows; SQ 30 µg/kg/d): 16.4^b g/day

Substance: p-Methyl Phenylmalonamindoyl pGRF(2-76)OH
pEC50 ([1]; Table 2, pGRF(2-76)OH analogs): 10.22

Substance: p-Nitro Hippuroyl bGRF (2-77)0H
pEC50 [1, 2]: 9.29
